In publication PMC5750217 (Nature Communications, 2018):

What was measured:
[1] = target: T1, A2-S481T/C482T (mutant ASCT2) (Homo sapiens, UniProt Q15758, C467T/S466T); experiment: Radiolabelled uptake in oocytes expressing A2-S481T/C482T; assay type: cell-based; settings: 10 µM L-[3H]substrate, 10 min, room temperature
T1 construct: expressed in transfected cells; host or cells: Xenopus laevis oocytes (cRNA injection)
T1 sequence (Q15758 1-541 S466T/C467T): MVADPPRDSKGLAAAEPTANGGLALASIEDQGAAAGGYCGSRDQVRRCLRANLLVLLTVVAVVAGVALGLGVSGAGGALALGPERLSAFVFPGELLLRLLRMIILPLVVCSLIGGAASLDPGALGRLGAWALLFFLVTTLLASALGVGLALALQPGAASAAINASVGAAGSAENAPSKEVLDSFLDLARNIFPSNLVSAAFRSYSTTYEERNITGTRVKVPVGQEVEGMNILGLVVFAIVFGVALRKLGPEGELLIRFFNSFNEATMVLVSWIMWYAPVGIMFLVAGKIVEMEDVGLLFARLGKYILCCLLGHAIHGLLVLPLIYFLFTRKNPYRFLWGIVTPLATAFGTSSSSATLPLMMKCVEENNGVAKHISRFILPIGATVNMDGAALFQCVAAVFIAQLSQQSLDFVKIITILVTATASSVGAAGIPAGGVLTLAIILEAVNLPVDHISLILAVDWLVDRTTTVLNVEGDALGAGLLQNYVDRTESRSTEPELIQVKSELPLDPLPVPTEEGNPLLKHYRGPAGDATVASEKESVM

A1-T458S (mutant ASCT1) = target: T2, A1-T458S (mutant ASCT1) (Homo sapiens, UniProt P43007, T458S); experiment: Two electrode voltage clamp, substrate-activated anion current in oocytes expressing A1-T458S; assay type: cell-based; settings: NO3−-containing buffer, current at +60 mV, dash = substrate did not generate currents
T2 construct: expressed in transfected cells; host or cells: Xenopus laevis oocytes (cRNA injection)
T2 sequence (P43007 1-532 T458S): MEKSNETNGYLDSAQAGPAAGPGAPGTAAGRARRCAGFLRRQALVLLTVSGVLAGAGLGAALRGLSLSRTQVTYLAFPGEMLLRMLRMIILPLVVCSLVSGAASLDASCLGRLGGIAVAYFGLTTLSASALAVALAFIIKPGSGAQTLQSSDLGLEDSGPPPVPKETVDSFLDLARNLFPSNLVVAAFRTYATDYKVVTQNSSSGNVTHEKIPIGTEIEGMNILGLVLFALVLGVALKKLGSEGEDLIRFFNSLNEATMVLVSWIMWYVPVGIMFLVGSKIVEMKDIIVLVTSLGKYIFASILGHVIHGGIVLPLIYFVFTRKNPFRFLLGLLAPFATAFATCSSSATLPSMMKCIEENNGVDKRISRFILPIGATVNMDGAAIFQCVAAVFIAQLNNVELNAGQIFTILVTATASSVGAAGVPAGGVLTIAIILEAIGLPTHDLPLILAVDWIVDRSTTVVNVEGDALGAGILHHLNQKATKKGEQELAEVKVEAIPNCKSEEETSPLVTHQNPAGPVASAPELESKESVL
Description: All chemicals were obtained from Sigma unless otherwise stated. Stage V oocytes were harvested from female Xenopus laevis (frogs) which were obtained from Nasco (Fort Alkinson, USA). Frogs were anaesthetised with 6.5 mM tricaine neutralised with 7.14 mM sodium bicarbonate. After making an incision in the abdomen of the frog, ovarian sacs were removed and stored in OR-2 buffer (82.5 mM NaCl, 2 mM KCl, 1 mM MgCl2, 5 mM hemisodium HEPES, pH 7.5). This surgical procedure follows a protocol (#2016/970) approved by the University of Sydney Animal Ethics Committee under the Australian Code of Practice for the Care and Use of Animals for Scientific Purposes. […]
After 2–4 days of microinjection, current recordings were made using the two electrode voltage clamp technique with a Geneclamp 500 amplifier (Axon Instruments, Foster City, CA) interfaced with a MacLab 2e chart recorder (ADI Instruments, Sydney, Australia) using the chart software, and a Digidata 1322A (Axon Instruments) controlled by an IBM-compatible computer using the pClamp software (version 10, Molecular Devices, Union City, CA). […] Current–voltage relationships were calculated by subtracting steady state current measurements in the absence of substrate from corresponding current measurements in the presence of substrate. […]

SMILES: N[C@@H](CO)C(=O)O [L-serine]
- Radiolabelled substrate uptake into oocytes (in words) [1]: displays uptake
- EC50 (A1-T458S (mutant ASCT1)): 106 ± 4 µM

SMILES: NC(=O)CC[C@H](N)C(=O)O [L-glutamine]
- EC50 of substrate-activated current (A1-T458S (mutant ASCT1)): does not respond
